Data published in patent US11584744B2 (UNIVERSITY OF WASHINGTON, priority 2017, dated 2023).
Converted amounts (≈) assume the structure as drawn. “And” between values parts separate entries of the source, which are not always exact repeats. Identical values can stand only once. Like-named read-outs stand apart in the source and are kept apart here.

Experiments:
[1] = tested on: C. parvum; experiment: C. parvum growth inhibition; type: cell-based, Cryptosporidium parvum; settings: read-out: (J) C. parvum EC50
[2] = target: MetRS (C. parvum) (Cryptosporidium parvum, UniProt Q5CVN0); experiment: MetRS (C. parvum) enzyme inhibition; type: biochemical; settings: read-out: (C) MetRS (C. parvum) IC50
MetRS (C. parvum), sequence (Q5CVN0 entry or part of it): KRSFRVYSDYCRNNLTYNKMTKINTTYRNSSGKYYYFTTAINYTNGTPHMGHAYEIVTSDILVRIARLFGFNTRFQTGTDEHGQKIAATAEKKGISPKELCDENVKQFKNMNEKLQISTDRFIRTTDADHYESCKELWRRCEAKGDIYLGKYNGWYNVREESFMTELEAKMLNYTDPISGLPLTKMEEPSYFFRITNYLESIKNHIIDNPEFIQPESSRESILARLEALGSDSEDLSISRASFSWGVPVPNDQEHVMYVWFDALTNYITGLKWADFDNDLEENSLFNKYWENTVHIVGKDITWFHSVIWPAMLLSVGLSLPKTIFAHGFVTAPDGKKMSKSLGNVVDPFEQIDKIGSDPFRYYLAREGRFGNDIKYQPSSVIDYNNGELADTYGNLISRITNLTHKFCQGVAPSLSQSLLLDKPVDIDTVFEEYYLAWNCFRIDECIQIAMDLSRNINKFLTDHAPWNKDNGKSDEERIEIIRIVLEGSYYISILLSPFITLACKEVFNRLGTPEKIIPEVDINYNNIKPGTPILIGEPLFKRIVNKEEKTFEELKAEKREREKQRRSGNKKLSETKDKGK

[3] = target: T1, MetRS (T. brucei) (Trypanosoma brucei brucei, UniProt Q38C91); experiment: MetRS (T. brucei) enzyme inhibition; type: biochemical
T1 sequence (Q38C91 1-773): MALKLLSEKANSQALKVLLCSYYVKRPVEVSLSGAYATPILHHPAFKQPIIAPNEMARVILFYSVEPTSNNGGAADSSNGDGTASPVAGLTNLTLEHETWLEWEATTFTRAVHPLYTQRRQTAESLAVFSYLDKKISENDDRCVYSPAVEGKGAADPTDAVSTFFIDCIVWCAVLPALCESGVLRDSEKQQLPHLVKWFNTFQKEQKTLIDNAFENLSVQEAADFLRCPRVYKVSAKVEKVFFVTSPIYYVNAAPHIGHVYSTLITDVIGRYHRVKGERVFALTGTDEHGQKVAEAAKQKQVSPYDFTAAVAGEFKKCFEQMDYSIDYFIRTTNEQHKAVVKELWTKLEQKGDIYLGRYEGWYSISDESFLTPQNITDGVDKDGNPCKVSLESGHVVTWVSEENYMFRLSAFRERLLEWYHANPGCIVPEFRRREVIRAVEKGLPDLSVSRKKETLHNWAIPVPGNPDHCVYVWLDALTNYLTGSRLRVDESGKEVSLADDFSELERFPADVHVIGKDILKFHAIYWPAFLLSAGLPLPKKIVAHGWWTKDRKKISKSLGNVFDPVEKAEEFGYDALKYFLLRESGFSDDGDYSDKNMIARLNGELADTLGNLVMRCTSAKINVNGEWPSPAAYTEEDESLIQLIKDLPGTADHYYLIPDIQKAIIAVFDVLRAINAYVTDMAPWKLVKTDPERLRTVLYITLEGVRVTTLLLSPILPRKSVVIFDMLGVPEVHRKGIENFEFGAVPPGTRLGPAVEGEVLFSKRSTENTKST

[4] = tested on: E. faecium VRE (ATCC 51559); experiment: MIC susceptibility testing; type: cell-based, Enterococcus faecium; settings: E. faecium ATCC 51559; for MIC: Enterococcus faecium, read-out: (I) E. faecium (ATCC 51559) MIC
Excerpt: Media and culture conditions. Mueller Hinton broth (MHB), cation adjusted Mueller Hinton broth (CA-MHB), and Brain Heart Infusion broth (BHI) were purchased from Becton Dickinson (Franklin Lakes, N.J.). Tryptic soy agar (TSA) plates, TSA with 5% sheep blood plates, and CA-MHB with 3% laked horse blood were purchased from Remel (San Diego, Calif.). MHB was used to assay all Staphylococcus aureus strains. CA-MHB was used for Staphylococcus epidermidis, Enterococcus faecalis, Enterococcus faecium, Escherichia coli, and Pseudomonas aeruginosa. CA-MHB supplemented with 3% laked horse blood was used for Streptococcus pneumoniae and Streptococcus pyogenes. Staphylococcus, Enterococcus, Escherichia, and Pseudomonas strains were cultured at 37° C. with ambient air. Streptococcus strains were cultured in 37° C. with 5% CO2. Separate conditions for radiolabeled precursor uptake assays are described below.
Susceptibility testing: Minimum inhibitory concentration (MIC) determinations were performed in triplicate in 96-well round bottom microtiter plates (Corning, Corning N.Y.) as described by the Clinical and Laboratory Standards Institute (CLSI). Serial two-fold dilutions of compounds were added to plates in 50 μL volumes. An additional 50 μL of media containing bacterial cells (1×10^6 CFUs/mL) was then added to each well. Maximum DMSO concentrations were 0.5%. Plates were incubated at 37° C. for at least 18 h before reading the susceptibility result by optical absorbance (OD600) using a BioTek ELx800. The lowest concentration causing ≥90% growth inhibition compared to the untreated control was recorded as the MIC (and also corresponded to the visual MIC). MICs were measured at least twice and the higher value (if different) was recorded herein.

[5] = tested on: T. cruzi; experiment: T. cruzi growth inhibition; type: cell-based, Trypanosoma cruzi; settings: read-out: (E) T. cruzi EC50
[6] = tested on: S. aureus MSSA (ATCC 29213); experiment: MIC susceptibility testing; type: cell-based, Staphylococcus aureus; settings: S. aureus ATCC 29213; for MIC: Staphylococcus aureus, read-out: (F) S. aureus (ATCC 29213) MIC
[7] = tested on: T. brucei; experiment: T. brucei growth inhibition; type: cell-based, Trypanosoma brucei; settings: read-out: (D) T. brucei EC50
[8] = tested on: S. aureus MRSA (ATCC 33591); experiment: MIC susceptibility testing; type: cell-based, Staphylococcus aureus; settings: MRSA ATCC33591; for MIC: Staphylococcus aureus, read-out: (G) MRSA (ATCC33591) MIC
Outline: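 CLSI broth microdilution in triplicate, 5×10^5 CFU/mL final, ≤0.5% DMSO; MHB for S. aureus, CA-MHB for E. coli and E. faecium, CA-MHB plus 3% laked horse blood for S. pyogenes (5% CO2).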

Row | Structure (SMILES) | EC50 ([1]; Cryptosporidium parvum) [nM] | IC50 [2] [nM] | IC50 [3] [nM] | (I) E. faecium (ATCC 51559) MIC [4] [µg/mL] | MIC [4] [µg/mL] | EC50 ([5]; Trypanosoma cruzi) [nM] | (F) S. aureus (ATCC 29213) MIC [6] | MIC [6] [µg/mL] | EC50 ([7]; Trypanosoma brucei) [nM] | MIC [8] [µg/mL] | EC50 [7] [nM] | EC50 [5] [nM] | (G) MRSA (ATCC33591) MIC [8] [µg/mL] | EC50 [1] [nM]
1 | CC(C)(N)Cn1c(Cc2ccc(Cl)cc2Cl)cn(Cc2nc3nc(Cl)ccc3[nH]2)c1=O [Compound 2212, 5-(2,4-dichlorobenzyl)-1-(2-amin0-2-methylpropyl)-3-((5-chloro-1H-imidazo[4,5-b]pyridin-2-yl)methyl)-1H-imidazol-2(3H)-one] | > 2000 | 45.7 | < 40 | 0.426 | 0.512 (≈ 1.07 µM) | 236 | 1.33, μg/ml and 1.65 μg/ml | 1.72 (≈ 3.58 µM) | 3.03 | – | – | – | – | –
2 | COc1ccc(-c2cccc3nn(Cc4nc5nc(Cl)ccc5[nH]4)cc23)c(Cl)c1 [Compound 2245, 2-({5-chloro-1H-imidazo[4,5-b]pyridin-2-yl}methyl)-4-(2-chloro-4-methoxyphenyl)-2H-indazole] | > 2000 | < 40 | – | – | – | – | 0.0526, μg/ml and 0.0902 μg/ml | 0.0924 (≈ 0.218 µM) | 25.4 | 0.0378 (≈ 0.0891 µM) | 17.3 | – | – | –
3 | COC(=O)Cn1c(C(O)c2ccc(Cl)cc2Cl)cn(Cc2nc3ccc(Cl)nc3[nH]2)c1=O (stereo not shown) [Compound 2217, methyl 2-(3-((5-chloro-3H-imidazo[4,5-b]pyridin-2-yl)methyl)-5-((2,4-dichlorophenyl)(hydroxy)methyl)-2-oxo-2,3-dihydro-1H-imidazol-1-yl)acetate] | > 2000 | 59.3 | < 40 | – | 0.691 (≈ 1.39 µM) | 2600 | 3.12, μg/ml and 3.27 μg/ml | > 2.5 | 11.6 | – | – | – | – | –
4 | COc1ccc(-c2nccc3nc(Cc4nc5ccc(Cl)nc5[nH]4)cn23)c(Cl)c1 [Compound 2256, 2-({5-chloro-1H-imidazo[4,5-b]pyridin-2-yl}methyl)-5-(2-chloro-4-methoxyphenyl)imidazo[1,2-c]pyrimidine] | 1940 | – | – | – | – | 76.5 | – | – | 12.3 | > 2 | 20.3 | 77.2 | 1.59 | –
5 | COc1ccc(-c2cccc3c2CN(Cc2nc4nc(C)nc(N)c4[nH]2)C3=O)c(Cl)c1 [Compound 2251, 2-((6-amin0-2-methyl-7H-purin-8-yl)methyl)-4-(2-chloro-4-methoxyphenyl)isoindolin-1-one] | > 2000 | < 40 | – | – | > 4 | 811 | – | – | 166 | – | – | – | – | –
6 | COc1ccc(-c2nccn3c(=S)n(Cc4nc5nc(Cl)ccc5[nH]4)cc23)c(Cl)c1 [Compound 2250, 2-({5-chloro-1H-imidazo[4,5-b]pyridin-2-yl}methyl)-8-(2-chloro-4-methoxyphenyl)-2H,3H-imidazo[1,5-a]pyrazine-3-thione] | – | – | – | 1.01 | 1.35 (≈ 2.95 µM) | – | – | – | 28.9 | – | – | – | – | –
7 | COc1ccc(-c2cccc3c2CN(Cc2nc4c(N)ncnc4[nH]2)C3=O)c(Cl)c1 [Compound 2239, 2-((6-amino-9H-purin-8-yl)methyl)-4-(2-chloro-4-methoxyphenyl)isoindolin-1-one] | > 2000 | < 40 | < 40 | – | – | 3880 | – | > 2 | 267 | > 2 | – | – | – | –
8 | COc1ccc(Cc2cn(Cc3nc4c(C)c(Cl)ccc4[nH]3)c(=O)n2CC(C)(C)O)c(Cl)c1 [Compound 2248, 4-[(2-chloro-4-methoxyphenyl)methyl]-1-[(5-chloro-4-methyl-1H-1,3-benzodiazol-2-yl)methyl]-3-(2-hydroxy-2-methylpropyl)-2,3-dihydro-1H-imidazol-2-one] | > 2000 | 40.8 | – | 2.23 | 1.98 (≈ 4.05 µM) | 491 | – | – | 81.8 | – | – | – | – | –
9 | CCn1c(Cc2ccc(Cl)cc2Cl)cn(Cc2cc3nc(F)ccc3[nH]2)c1=O [Compound 2112, 5-(2,4-dichlorobenzyl)-1-ethyl-3-((5-fluoro-1H-pyrrolo[3,2-b]pyridin-2-yl)methyl)-1H-imidazol-2(3H)-one] | 620 | < 40 | < 40 | – | – | 176 | – | 0.254 (≈ 0.606 µM) | 9.56 | 0.405 (≈ 0.966 µM) | – | – | – | –
10 | COc1cc(Cl)c(-c2nccc3nc(Cc4nc5nc(Cl)ccc5[nH]4)cn23)cc1OC [Compound 2246, 2-({5-chloro-1H-imidazo[4,5-b]pyridin-2-yl}methyl)-5-(2-chloro-4,5-dimethoxyphenyl)imidazo[1,2-c]pyrimidine] | 359 | 55.6 | – | – | – | 17.9 | 0.497 µg/mL | 0.277 (≈ 0.608 µM) | 6.68 | 0.115 (≈ 0.253 µM) | 5.68 | 20.6 | – | 300
11 | O=c1n(Cc2nc3nc(Cl)ccc3[nH]2)cc(Cc2ccc(Cl)cc2Cl)n1CC1(O)CC1 [Compound 2225, 1-({5-chloro-1H-imidazo[4,5-b]pyridin-2-yl}methyl)-4-[(2,4-dichlorophenyl)-methyl]-3-[(1-hydroxycyclopropyl)methyl]-2,3-dihydro-1H-imidazol-2-one] | 1840 | 49.2 | – | – | 1.52 (≈ 3.17 µM) | 245 | 3.02 µg/mL | > 2.5 | 14.5 | – | 26.9 | – | – | –
12 | O=c1n(Cc2nc3ccc(F)nc3[nH]2)cc(Cc2ccc(Cl)cc2Cl)n1C1CC1 [Compound 2070, 3-cyclopropyl-4-[(2,4-dichlorophenyl)methyl]-1-({5-fluoro-1H-imidazo[4,5-b]pyridin-2-yl}methyl)-2,3-dihydro-1H-imidazol-2-one] | > 2000 | < 40 | < 40 | – | 0.0246 (≈ 0.0569 µM) | 133 | 0.0371 µg/mL | 0.0609 (≈ 0.141 µM) | – | – | – | – | – | –
13 | COC(=O)Nc1ccc(-c2ccc(OC)cc2Cl)n2cc(Cc3nc4ccc(Cl)cc4[nH]3)nc12 [Compound 2181, methyl N-{2-[(6-chloro-1H-1,3-benzodiazol-2-yl)methyl]-5-(2-chloro-4-methoxyphenyl)imidazo[1,2-a]pyridin-8-yl}carbamate] | – | 52.9 | < 40 | – | 0.694 (≈ 1.4 µM) | 538 | – | – | 61.1 | 0.822 (≈ 1.66 µM) | – | – | – | –
14 | COc1cc(Cl)c(-c2nccc3nc(Cc4nc5c(Cl)c(Cl)ccc5[nH]4)cn23)cc1OC [Compound 2255, 6,7-dichlor0-2-{[5-(2-chloro-4,5-dimethoxyphenyl)imidazo[1,2-c]pyrimidin-2-yl]methyl}-1H-1,3-benzodiazole] | > 2000 | 277 | – | – | – | 165 | 2.93 µg/mL | 1.82 (≈ 3.72 µM) | 71.5 | 1.82 (≈ 3.72 µM) | – | – | – | –
